The record followed here is patent US20130190251A1, “METHOD FOR PREDICTING THE RESPONSIVENESS TO CHEMOTHERAPY” (priority 2010, published 2013).

What all share (assay type): cell-based
For assay [1], the system named is HL-60 cells resistant to daunorubicin (HL60R). The experiment in a line: Apoptosis by mitochondrial depolarization after DiOC6 labeling, HL60R. The note with it: 15-hour incubation, gliotoxin 1 mg/ml or p21 peptide 50 mM. As to the method:
(§1) FIG. 7. The p21 peptide restores apoptosis in daunorubicin-resistant HL60 cells. HL60S and HL60R were incubated overnight with the p21 peptide (50 mM) or with gliotoxin (1 mg/ml). After a 15-hour incubation, the effect of the p21 peptide on the percentage of apoptotic HL60 cells was measured by mitochondrial depolarization after DiOC6 labeling and by DNA fragmentation after propidium iodide labeling. Data are means±SEM of 5 independent experiments.
(§2) Apoptosis in HL-60 cells sensitive to daunorubicin (HL60S) was compared to apoptosis in HL-60 cells resistant to daunorubicin (HL60R). Apoptosis was induced either by gliotoxin that triggers apoptosis by targeting the mitochondria or the p21 peptide. The p21 peptide corresponds to residues 141 to 160 of p21 fused to the cell penetrating peptide RYIRS. HL60S and HL60R were incubated overnight with the p21 peptide (50 mM) or with gliotoxin (1 mg/ml). After a 15-hour incubation, the effect of the p21 peptide on the percentage of apoptotic HL60 cells was measured by mitochondrial depolarization after DiOC6 labeling and by DNA fragmentation after propidium iodide labeling (FIG. 7).

Assay [2] deals with HL-60 cells sensitive to daunorubicin (HL60S). As to the kind of experiment: Apoptosis by DNA fragmentation after propidium iodide labeling, HL60S. The note with it: 15-hour incubation, gliotoxin 1 mg/ml or p21 peptide 50 mM. On the procedure:
as §1, §2

Assay [3] has as its system HL-60 cells resistant to daunorubicin (HL60R). The experiment in a line: Apoptosis by DNA fragmentation after propidium iodide labeling, HL60R. The settings on record: 15-hour incubation, gliotoxin 1 mg/ml or p21 peptide 50 mM. On the procedure:
as §1, §2

Assay [4] concerns K562-doxorubicin sensitive cells. As to the kind of experiment: Analysis of drug resistance by DIOC2 efflux, K562 sensitive. The note with it: cisplatin 2.5 μg/ml, DIOC2 50 ng/ml, 30 min at 37° C., FACS. As to the method:
(§3) FIG. 6. Acquisition of drug resistance of myelocytic leukemia cell line K562 by doxorubicin. Analysis of inhibition by cisplatin of DIOC2 incorporation in myelocytic leukemia K562 cell line. Drug resistance is mediated by ABC transporters such as P-glycoprotein (P-gp) K562 cells were incubated with DIOC2 with or without cisplatin, and the fluorescence of DIOC2 incorporated in cells was assessed by FACS. In K562-doxorubicin sensitive cells, high fluorescence of DIOC2 is observed because of the lack of efflux. No effect of cisplatin is observed consistent with an absence of ABC transporter-mediated drug resistance.
(§4) The assay is based on the efflux of fluorescent P-gp substrate DiOC2 (3-ethyl-2-[3-(3-ethyl-2(3H)-benzoxazolylidene)-1-propenyl]benzoxazolium iodide) in doxorubicin-resistant cells, which can be inhibited by cisplatin. This efflux is absent in doxorubicin-sensitive cells resulting in an accumulation of DIOC2. DIOC2 fluorescence is measured by flow cytometry. Briefly, K562 at 1×10^6 cellules/ml were treated by cisplatin (2.5 μg/ml) in the presence of DIOC2 (50 ng/ml) for 30 min at 37° C. The cells are analyzed by flow cytometry.

Assay [5] has as its system K562-doxorubicin resistant cells. The experiment in a line: Analysis of drug resistance by DIOC2 efflux, K562 resistant. The settings on record: cisplatin 2.5 μg/ml, DIOC2 50 ng/ml, 30 min at 37° C., FACS. On the procedure:
as §3, §4

The subject of assay [6] is HL-60 cells sensitive to daunorubicin (HL60S). As to the kind of experiment: Apoptosis by mitochondrial depolarization after DiOC6 labeling, HL60S. The note with it: 15-hour incubation, gliotoxin 1 mg/ml or p21 peptide 50 mM. As to the method:
as §1, §2

Entries after “also recorded” stand apart in the source; their conditions may differ.

On to `CN1C(=O)[C@]23CC4=CC=C[C@H](O)[C@H]4N2C(=O)[C@@]1(CO)SS3` [Gliotoxin, gliotoxin], for which the “mitochondria depolarization in HL60R (percentage of apoptotic HL60 cells)” value in assay [1] is listed as “no effect on HL60R”. Also, the “DNA fragmentation in HL60S (percentage of apoptotic HL60 cells)” value in assay [2] was “triggers mitochondria depolarization and DNA fragmentation in HL60S”; in assay [2] (listed as gliotoxin) it was “induces apoptosis in HL60S”. Further, the “DNA fragmentation in HL60R (percentage of apoptotic HL60 cells)” value in assay [3] was “no effect on HL60R”.
With `N.N.[Cl][Pt][Cl]` [cisplatin], the “effect on fluorescence of DIOC2 incorporated in cells” value in assay [4] was “No effect”. Moreover, the “effect on DIOC2 efflux (fluorescence of DIOC2 incorporated in cells)” value in assay [5] was “efflux which was reversed”.
Consider “p21 peptide: residues 141 to 160 of p21 fused to the cell penetrating peptide RYIRS (KRRQTSMTDFYHSKRRLIFSRYIRS; Synthetic peptide based on residues 141 to 160 of p21 fused to the RYIRS tag)”, for which, in assay [6], the “mitochondria depolarization in HL60S (percentage of apoptotic HL60 cells)” value was “more modest effect”. Moreover, the “mitochondria depolarization in HL60R (percentage of apoptotic HL60 cells)” value in assay [1] is reported as “low but significant mitochondria depolarization”. Moreover, in assay [3], the “DNA fragmentation in HL60R (percentage of apoptotic HL60 cells)” value is listed as “induces DNA fragmentation in HL60R more potently than in HL60S; also recorded: inducing DNA fragmentation in HL60R more potently than in HL60S”.
